Laboratory results taken from patent publication US12048699B2, “Cancer treatment methods based on TP53 mutation status and hypermutation” (TAKEDA PHARMACEUTICAL COMPANY LIMITED, priority 2018, dated 2024).

Tests used:
[1] = test system: human primary tumor xenograft models; assay: phase 2-like preclinical study in human primary tumor xenograft (PDX) models, % ΔTGI response vs mutation status; type: in vivo, Balb/c nude mice; settings: 77 PDX models, crystalline form A of Compound 1 hemihydrate, 60 mg/kg, Bid, po, 21 days, 3 days on 4 days off
Text: Compound 1 is an investigational drug under clinical development for cancer treatment. Compound 1 achieves anti-tumor effects by inhibiting Cdc7 kinase, which is involved in DNA replication and repair. Predictive biomarker identification was investigated using data derived from a phase 2-like preclinical study, that is human primary tumor xenograft models using Balb/c nude mice ([…], female, 6-8 weeks old, 18-22 g). For each model, 6 tumor bearing mice were randomized into 2 groups. Tumor fragments from seed mice inoculated with selected PDX tumors were harvested and used for inoculation into Balb/c nude mice. Each mouse was inoculated subcutaneously at the right flank with one tumor fragment (2-3 mm in diameter). The treatments were started when mean tumor size reached approximately 200-250 mm^3. Mice were dosed orally with either vehicle or Compound 1 (crystalline form A of Compound 1 hemihydrate, 60 mg/kg, Bid, po, 21 days, 3 days on 4 days off). TP53 mutation status and hypermutation status as measured by microsatellite instability/stability (MSI/MSS) status were identified as predictive biomarkers for cancer treatment with Compound 1.
Whole exome sequencing (WES) and RNA sequencing (RNASeq) were done for 92 xenograft models whose cancer types are colon (n=40), pancreas (n=24), non-small cell lung (n=23), and ovary cancer (n=5).
In this study, % ΔTGI (percent delta tumor growth inhibition) was used and its mathematical definition is as follows.
In the above equation, Tt and T0 represent the sizes of tumor in treatment at time t and 0 and similarly Ct and C0 mean the sizes of tumor in control (vehicle) at the same time points t and 0. Therefore, a large % ΔTGI indicates a higher degree of tumor growth inhibition in treatment than in vehicle.
Binary response was inferred by categorizing % ΔTGI, so that samples were classified as responders with high % ΔTGI and non-responders with low % ΔTGI. Chi-square test was run to evaluate the potential association between the class labels (responder vs. non-responder) and mutational status (MUT vs. WT). […]

human hepatocytes = assay: metabolism in human hepatocytes; type: in vitro ADME; settings: metabolite structures shown in drawing 7

Cc1[nH]ncc1-c1cc2nc([C@@H]3CC4CCN3CC4)[nH]c(=O)c2s1 [Compound 1, 2-[(2S)-1-azabicyclo[2.2.2]oct-2-yl]-6-(3-methyl-1H-pyrazol-4-yl)thieno[3,2-d]pyrimidin-4(3H)-one]
association of TP53 mutation with response (% ΔTGI, responder vs. non-responder) ([1]; Chi-square test / decision tree): most significantly associated with response | association of CHD family genes mutation with response (% ΔTGI, responder vs. non-responder) ([1]; decision tree): associated with non-response | association of hypermutation with response (% ΔTGI, responder vs. non-responder) ([1]; decision tree): associated with non-response | metabolism to metabolites (human hepatocytes): can be metabolized to compounds of the following structures
